Reference: patent publication US7786299B2, “Methods for treating diseases or conditions using dihydropteridinone compounds” (Boehringer Ingelheim Pharma GmbH & Co. KG, priority 2003, dated 2010)

How the values were obtained:
HeLaS3 cells = test: Measurement of cytotoxicity on cultivated human tumour cells (AlamarBlue); type: cell-based; conditions: HeLa in Table 1; unit inferred
Protocol: The activity of the compounds according to the invention was determined in the cytotoxicity test on cultivated human tumour cells and/or in a FACS analysis, for example on HeLaS3 cells.
Measurement of Cytotoxicity on Cultivated Human Tumour Cells
To measure the cytotoxicity on cultivated human tumour cells, cells of the cervical cancer tumour cell line HeLaS3 (obtained from American Type Culture Collection (ATCC)) in Ham's F12 Medium (Life Technologies) and 10% foetal calf serum (Life Technologies) were cultivated and harvested in the logarithmic growth phase. Then the HeLaS3 cells were placed in 96-well plates (Costar) at a density of 1000 cells per well and incubated overnight in an incubator (at 37° C. and 5% CO2), while on each plate 6 wells were filled only with medium (3 wells as a control of the medium, 3 wells for incubation with reduced AlamarBlue). The active substances were added to the cells in various concentrations (dissolved in DMSO; final concentration: 1%) (in each case as a triple measurement). After 72 hours' incubation, 20 μl of AlamarBlue (AccuMed International) were added to each well, and the cells were incubated for a further 7 hours. As a control, 20 μl of reduced Alamar Blue (AlamarBlue reagent which had been autoclaved for 30 min) were added to 3 wells. After 7 h incubation the colour change of the AlamarBlue reagent in the individual wells was determined in a Perkin Elmer fluorescence spectrophotometer (excitation 530 nm, emission 590 nm, slits 15, integrate time 0.1). The amount of AlamarBlue reagent reacted represents the metabolic activity of the cells. The relative cell activity was calculated as a percentage of the control (HeLa S3 cells without inhibitor) and the active substance concentration which inhibits the cell activity by 50% (IC^50) was obtained. The values were calculated from the average of three individual measurements, correcting for the control value (medium control).

H460-VINC = test: Cytotoxicity on H460-VINC cells (Table 1; method not given); type: cell-based; conditions: H460-VINC of Table 1; unit inferred

Row | Structure (SMILES) | IC50 (HeLaS3 cells) | IC50 (H460-VINC)
1 | COc1cc(C(=O)NCC(C)(C)CN(C)C)ccc1Nc1ncc2c(n1)N(CCC(C)C)C(C)(C)C(=O)N2C [Example 53] | 76 nM | 245 nM
2 | COc1cc(C(=O)NC2CCN(Cc3ccccc3)CC2)ccc1Nc1ncc2c(n1)N(C1CCOCC1)C(C)C(=O)N2C (stereo not drawn) [Example 181] | – | 754 nM
3 | COc1cc(C(=O)NC2CCN(C(C)C)CC2)ccc1Nc1ncc2c(n1)N(CC(C)(C)C)C(C)C(=O)N2C (stereo not drawn) [Example 7] | 84 nM | 865 nM
4 | COc1cc(C(=O)NC2CCC(N3CCCCC3)CC2)ccc1Nc1ncc2c(n1)N(C1CCCC1)C(C)C(=O)N2C (stereo not drawn) [Example 25] | 38 nM | –
5 | CCN1CCC(NC(=O)c2ccc(Nc3ncc4c(n3)N(CC(C)(C)C)C(C)C(=O)N4C)c(OC)c2)CC1 (stereo not drawn) [Example 6] | 53 nM | 822 nM
6 | COc1cc(C(=O)NC2CC3CCC(C2)N3C)ccc1Nc1ncc2c(n1)N(CCC(C)C)C(C)(C)C(=O)N2C (stereo not drawn) [Example 43] | 94 nM | ≥ 3000 nM
7 | COc1cc(C(=O)NC2CCN(C)CC2)ccc1Nc1ncc2c(n1)N(CCC(C)C)C(C)C(=O)N2C (stereo not drawn) [Example 146] | 66 nM | 966 nM
8 | CCN(CC)CCNC(=O)c1ccc(Nc2ncc3c(n2)N(c2ccccc2)C(C)C(=O)N3C)c(OC)c1 (stereo not drawn) [Example 59] | 95 nM | –
9 | CCC1C(=O)N(C)c2cnc(Nc3ccc(C(=O)NCCCN4CCOCC4)cc3OC)nc2N1CCC(C)C (stereo not drawn) [Example 151] | 43 nM | –
10 | COc1cc(C(=O)NC2CCC(N3CCOCC3)CC2)ccc1Nc1ncc2c(n1)N(C(C)C)C(C)C(=O)N2C (stereo not drawn) [Example 26] | 59 nM | 424 nM
11 | CC1C(=O)N(C)c2cnc(Nc3ccc(C(=O)NC4CCN(Cc5ccccc5)CC4)cc3)nc2N1CC(C)(C)C (stereo not drawn) [Example 10] | 91 nM | –
12 | COc1cc(C(=O)NC2CCC(N3CCCC3)CC2)ccc1Nc1ncc2c(n1)N(CCC(C)C)[C@H](C)C(=O)N2C (stereo partly drawn) [Example 34] | 55 nM | –
13 | CC[C@@H]1C(=O)N(C)c2cnc(Nc3ccc(C(=O)NCCCN(CC)CC)cc3OC)nc2N1CCC(C)C [Example 165] | 46 nM | 668 nM
14 | CCC1C(=O)N(C)c2cnc(Nc3ccc(C(=O)NC4CCN(C)CC4)cc3)nc2N1C1CCCC1 (stereo not drawn) [Example 44] | 9 nM | 204 nM
15 | CC[C@@H]1C(=O)N(C)c2cnc(Nc3ccc(C(=O)NCCN(C)C)cc3OC)nc2N1CCC(C)C [Example 159] | 29 nM | –
16 | COc1cc(C(=O)NC(C)(C)CN(C)C)ccc1Nc1ncc2c(n1)N(C1CCCC1)[C@H](C)C(=O)N2C [Example 175] | – | 296 nM
17 | COc1cc(C(=O)NC2CCC(N3CCCCC3)CC2)ccc1Nc1ncc2c(n1)N(C1CCCCC1)C(C)C(=O)N2C (stereo not drawn) [Example 126] | 51 nM | 742 nM
18 | Cc1cc(C(=O)NC2CCN(C)CC2)ccc1Nc1ncc2c(n1)N(C1CCCCC1)[C@H](C)C(=O)N2C [Example 94] | 18 nM | 510 nM
19 | COc1cc(C(=O)NC(C)(C)CN2CCCC2)ccc1Nc1ncc2c(n1)N(C1CCCCC1)[C@H](C)C(=O)N2C [Example 87] | 29 nM | 66 nM
20 | COc1cc(C(=O)N[C@H]2CC[C@H](N3CCCC3)CC2)ccc1Nc1ncc2c(n1)N(CCC(C)C)[C@H](C)C(=O)N2C [Example 35] | 88 nM | –

Row | Structure (SMILES) | IC50 (HeLaS3 cells) | IC50 (H460-VINC)
21 | CCC1C(=O)N(C)c2cnc(Nc3ccc(C(=O)NC4CCCN(C)CC4)cc3OC)nc2N1CCC(C)C (mixture of isomers) [Example 172] | 20 nM | 772 nM
22 | COc1cc(C(=O)NC2CCC(N3CCOCC3)CC2)ccc1Nc1ncc2c(n1)N(C1CCCCC1)C(C)C(=O)N2C (stereo not drawn) [Example 137] | 39 nM | 148 nM
23 | COc1cc(C(=O)NC2CCN(C)CC2)ccc1Nc1ncc2c(n1)N(c1ccccc1)[C@H](C)C(=O)N2C [Example 41] | 83 nM | ≥ 3000 nM
24 | C[C@@H]1C(=O)N(C)c2cnc(Nc3ccc(C(=O)NC4CCN(C)CC4)cc3)nc2N1C1CCCC1 [Example 79] | 43 nM | –
25 | CCC1C(=O)N(C)c2cnc(Nc3ccc(C(=O)NC(C)(C)CN4CCCC4)cc3OC)nc2N1C1CCCC1 (stereo not drawn) [Example 55] | 13 nM | 86 nM
26 | COc1cc(C(=O)NC2CCN(C)CC2)ccc1Nc1ncc2c(n1)N(CC(C)C)C(C)(C)C(=O)N2C [Example 61] | 65 nM | 1040 nM
27 | CC[C@@H]1C(=O)N(C)c2cnc(Nc3ccc(C(=O)NCCCN4CCOCC4)cc3OC)nc2N1CCC(C)C [Example 152] | 81 nM | –
28 | COc1cc(C(=O)NCCN2CCCCC2)ccc1Nc1ncc2c(n1)N(C1CCCC1)C(C)C(=O)N2C (stereo not drawn) [Example 66] | 64 nM | 250 nM
29 | CC[C@@H]1C(=O)N(C)c2cnc(Nc3ccc(C(=O)NCCN(CC)CC)cc3OC)nc2N1CCC(C)C [Example 158] | 43 nM | 536 nM
30 | COc1cc(C(=O)N[C@H]2CC[C@H](N3CCOCC3)CC2)ccc1Nc1ncc2c(n1)N(C1CCCC1)[C@H](C)C(=O)N2C [Example 40] | 38 nM | 187 nM
31 | COc1cc(C(=O)NC2CCN(C)CC2)ccc1Nc1ncc2c(n1)N(C1CCCC1)[C@H](C)C(=O)N2C [Example 80] | 38 nM | 286 nM
32 | COc1cc(C(=O)NCCN(C(C)C)C(C)C)ccc1Nc1ncc2c(n1)N(CCC(C)C)C(C)(C)C(=O)N2C [Example 161] | 81 nM | –
33 | CC[C@@H]1C(=O)N(C)c2cnc(Nc3ccc(C(=O)NC(C)(C)CN(C)C)cc3OC)nc2N1C1CCCC1 [Example 177] | – | 82 nM
34 | CCN1CC[C@@H](NC(=O)c2ccc(Nc3ncc4c(n3)N(CCC(C)C)[C@H](C)C(=O)N4C)cc2)C1 [Example 39] | 75 nM | –
35 | CC[C@@H]1C(=O)N(C)c2cnc(Nc3ccc(C(=O)NCCN(CC)CC)cc3)nc2N1C(C)C [Example 73] | 91 nM | –
36 | CC[C@@H]1C(=O)N(C)c2cnc(Nc3ccc(C(=O)NCCN(CC)CC)cc3OC)nc2N1C(C)C [Example 74] | 43 nM | –
37 | CC[C@@H]1C(=O)N(C)c2cnc(Nc3ccc(C(=O)NC(C)(C)CN(C)C)cc3OC)nc2N1C(C)C [Example 176] | – | 301 nM
38 | CC[C@@H]1C(=O)N(C)c2cnc(Nc3ccc(C(=O)NCCCN4CCOCC4)cc3)nc2N1CCC(C)C [Example 154] | 97 nM | –
39 | COc1cc(C(=O)N[C@H]2CC[C@H](N3CCCCC3)CC2)ccc1Nc1ncc2c(n1)N(CCC(C)C)[C@H](C)C(=O)N2C [Example 29] | 49 nM | –
40 | C[C@@H]1C(=O)N(C)c2cnc(Nc3ccc(C(=O)NC4CC5CCC(C4)N5C)cc3)nc2N1C1CCCCC1 (stereo partly drawn) [Example 92] | 43 nM | –

Row | Structure (SMILES) | IC50 (HeLaS3 cells) | IC50 (H460-VINC)
41 | CC[C@@H]1C(=O)N(C)c2cnc(Nc3ccc(C(=O)NCCN4CCCCC4)cc3OC)nc2N1C(C)C [Example 72] | 50 nM | –
42 | COc1cc(C(=O)NC2CCC(N3CCCC3)CC2)ccc1Nc1ncc2c(n1)N(C1CCCC1)[C@H](C)C(=O)N2C (stereo partly drawn) [Example 36] | 21 nM | –
43 | CCN(CC)CCCNC(=O)c1ccc(Nc2ncc3c(n2)N(C2CCCC2)[C@H](C)C(=O)N3C)c(OC)c1 [Example 76] | 68 nM | –
44 | CCC1C(=O)N(C)c2cnc(Nc3ccc(C(=O)NC4CN5CCC4CC5)cc3OC)nc2N1CCC(C)C (stereo not drawn) [Example 163] | 71 nM | –
45 | COc1cc(C(=O)NC2CCC(N3CCCC3)CC2)ccc1Nc1ncc2c(n1)N(C1CCCC1)C(C)C(=O)N2C (stereo not drawn) [Example 15] | 20 nM | –
46 | CCC1C(=O)N(C)c2cnc(Nc3ccc(C(=O)NC4CC5CCC(C4)N5C)cc3)nc2N1C1CCCC1 (stereo not drawn) [Example 47] | 28 nM | –
47 | CCC1C(=O)N(C)c2cnc(Nc3ccc(C(=O)NC4CCN(Cc5ccccc5)CC4)cc3OC)nc2N1C1CCCCC1 (stereo not drawn) [Example 180] | – | 147 nM
48 | CC1C(=O)N(C)c2cnc(Nc3ccc(C(=O)NC4CC(C)(C)N(C)C(C)(C)C4)cc3)nc2N1CC(C)(C)C (stereo not drawn) [Example 8] | 63 nM | –
49 | CC(C)CCN1c2nc(Nc3ccc(C(=O)NC4CC(C)(C)N(C)C(C)(C)C4)cc3)ncc2N(C)C(=O)C1C (stereo not drawn) [Example 3] | 61 nM | –
50 | CCC1C(=O)N(C)c2cnc(Nc3ccc(C(=O)NCCN4CCCCC4)cc3OC)nc2N1CCC(C)C (stereo not drawn) [Example 148] | 87 nM | –
51 | CCC1C(=O)N(C)c2cnc(Nc3ccc(C(=O)NCCN4CCCCC4)cc3)nc2N1CCC(C)C (stereo not drawn) [Example 150] | 43 nM | –
52 | CC[C@@H]1C(=O)N(C)c2cnc(Nc3ccc(C(=O)NCCCN4CCCC4)cc3OC)nc2N1CCC(C)C [Example 157] | 51 nM | –
53 | CN1CCC(NC(=O)c2ccc(Nc3ncc4c(n3)N(C3CCCC3)[C@H](C3CC3)C(=O)N4C)cc2)CC1 [Example 93] | 60 nM | –
54 | CCC1C(=O)N(C)c2cnc(Nc3ccc(C(=O)NCCN(CC)CC)cc3OC)nc2N1CCC(C)C (stereo not drawn) [Example 149] | 85 nM | –
55 | CC[C@@H]1C(=O)N(C)c2cnc(Nc3ccc(C(=O)NCCCN4CCOCC4)cc3)nc2N1CCC(C)C [Example 155] | 79 nM | –
56 | CCN1CCC(NC(=O)c2ccc(Nc3ncc4c(n3)N(CCC(C)C)C(C)C(=O)N4C)cc2)CC1 (stereo not drawn) [Example 4] | 98 nM | –
57 | CC1C(=O)N(C)c2cnc(Nc3ccc(C(=O)NCCN4CCCCC4)cc3)nc2N1C1CCCC1 (stereo not drawn) [Example 70] | 92 nM | –
58 | Cc1cc(C(=O)NC2CC3CCC(C2)N3C)ccc1Nc1ncc2c(n1)N(C1CCCCC1)[C@H](C)C(=O)N2C (stereo partly drawn) [Example 95] | 47 nM | –
